Patent publication US6849594B1, “Purification and use of human recombinant cartilage oligomeric matrix protein” (priority 1999, dated 2005)
Where two headings read alike, the source gives them in different places. Values belong to the substance of their own block, whether it stands above or below them.

Assays:
hCOMP = biological target: T1, hCOMP (Homo sapiens, UniProt P49747); test: Affinity co-electrophoresis (ACE) binding of hCOMP to glycosaminoglycans
T1 construct: transfected with full length human COMP cDNA, they were able to process and secrete hCOMP; made in house
Description: Affinity co-electrophoresis (ACE) was used to quantify the binding of hCOMP to heparin and other GAGs, including chondroitin sulfates from cartilage. Values are given in nM, and in cases where a standard deviation is reported, represent the mean of two determinations.
Affinity co-electrophoresis (ACE) (San Antonio et al., 1993) was used to quantify the binding of hCOMP to heparin and other commercially available GAGs derived from tissue sources, including chondroitin sulfates from cartilage, and values of Kd were measured. […] This is in agreement with our observation that hCOMP binds to heparin-Sepharose. […] To better ascertain potential roles of GAGs and proteoglycans in COMP function, heparan sulfate, keratan sulfate, and three chondroitin sulfates (chondroitin-6-sulfate, C6S; chondroitin-4-sulfate; C4S; and dermatan sulfate, DS) were tested for binding to hCOMP in the presence of 2 mM calcium using ACE (Table 1).
To further determine whether the conformation of the calcium-binding type 3 repeats was critical to GAG binding, hCOMP was tested for binding to heparin and C6S in the presence of 5 mM EDTA. […] While heparin binding was reduced only 3- to 5-fold by EDTA treatment, C6S binding appeared to be abolished by this treatment.

[1] = system: TC1a cells after 7- to 10-day culture in alginate beads; test: Attachment of TC1a cells after alginate culture to coated protein; assay type: cell-based, human
Description: An alginate culture system was used to re-differentiate the chondrocytes as described (Robbins and Goldring, 1998; Goldring, 1998; Hauselmann et al., 1994; Bonaventure et al., 1994). Briefly, cells in monolayer culture were trypsinized and washed with phosphate buffered saline. Cells were resuspended in 1.2% solution of Keltone, LVCR alginate (Monsanto, St. Louis, Mo.) in 0.15 M NaCl at a final concentration of 4×10^6 cells/ml. The cell suspension was then passed through a 22 Gauge needle into 102 mM CaCl2. Ten minutes after instant gelation, beads were washed with 0.15 M NaCl, and cultured in 1:1 DME/F-12 containing 10% FBS and 25 μg/ml ascorbate. To prepare cells in the alginate culture system for attachment assays, 7- to 10-day alginate bead cultures were solubilized with 55 mM citrate/0.15 M NaCl, pH 6.0 solution as described (Robbins and Goldring, 1998). Released cells were washed once with PBS and once with HBS/C before they were resuspended in HBS/C containing 1% BSA at a final concentration of 2-2.5×10^5 cells/ml.
Immulon II 96-well plates (DYNEX, Chantilly, Va.) were coated with COMP at various concentrations in HBS/C or HBS containing 5 mM EDTA (HBS/E) at 4° C. overnight. […] The amount of cells attached to each well was quantified using CyQuant kit (Molecular Probes, Eugene, Oreg.). […]

[2] = Direct calcium binding by equilibrium dialysis using 45CaCl2; settings: 0.3 mM free calcium concentration; mean±SD
Protocol: Direct calcium binding to COMP was measured by equilibrium dialysis using ^45CaCl2. Briefly, TSP1 and COMP were dialyzed in Slide-A-Lyzer dialysis units (Pierce, Rockford, Ill.) against dialysis buffer containing 0.3 mM CaCl2 and […] of ^45CaCl2. At the end of dialysis, 10 μl of protein sample and dialysis buffer were taken out for scintillation counting and protein determination. The number of calcium ions bound was calculated. At 0.3 mM free calcium concentration, each TSP1 subunit bound 10±2 calcium ions (mean±SD of four data points). This is in agreement with previous reports where 11-12 calcium ions were reported to bind to each TSP1 subunit (Lawler and Simons, 1983; Misenheimer and Mosher, 1995). Under the same conditions, each subunit of COMP bound 11±1 calcium ions. This is the first time it is shown that COMP binds calcium ions, and the result is consistent with the presence of highly homologous type 3 calcium binding repeats in COMP and other TSP family members.
Direct calcium binding to COMP was measured by equilibrium dialysis using ^45CaCl2. Briefly, TSP1 and COMP were dialyzed in Slide-A-Lyzer dialysis units (Pierce, Rockford, Ill.) against dialysis buffer containing 0.3 mM CaCl2 and 10 mCi/ml of ^45CaCl2. […] The number of calcium ions bound was calculated. […]

[3] = system: TC1a cells (chondrocyte-derived cell line), monolayer culture; test: Attachment of TC1a cells grown in monolayer to coated protein; assay type: cell-based, human
Protocol: To prepare cells grown in monolayer for attachment assays, cells grown in 10 cm tissue culture plates were washed twice with HEPES buffered saline (HBS), and treated with 1 ml of 0.1 mg/ml TPCK-treated trypsin (Worthington, Lakewood, N.J.) in HBS at 37° C. for 5 minutes. Trypsinization was stopped with 2 ml of 0.5 mg/ml soybean trypsin inhibitor (Sigma) in HBS with 1 mM CaCl2 (HBS/C). Cells were flushed off the plate as a single cell suspension, sedimented and washed twice with trypsin inhibitor solution. Subsequently, cells were resuspended in HBS/C containing 1% heat-inactivated bovine serum albumin (HI-BSA) at a final concentration of 2-2.5×10^5 cells/ml and used for attachment assays.
Immulon II 96-well plates (DYNEX, Chantilly, Va.) were coated with COMP at various concentrations in HBS/C or HBS containing 5 mM EDTA (HBS/E) at 4° C. overnight. The plates were then blocked with 1% HI-BSA in HBS/C or HBS/E, respectively, for 30 minutes at 37° C. After blocking, some wells coated with proteins in HBS/E were reduced with 20 mM dithiothreitol (DTT) in HBS/E for 30 minutes at 22° C. Wells were washed 4 times with HBS/C before addition of 100 μl of cells to each well and incubated for 2 hours at 37° C. At the end of the incubation, after examination under phase contrast microscopy, the plate was washed 3 times with HBS/C. The amount of cells attached to each well was quantified using CyQuant kit (Molecular Probes, Eugene, Oreg.).

[4] = system: Human costochondral cartilage cells; test: Transwell chondrocyte migration assay; assay type: cell-based; settings: for chondrocyte migration: coated on underside of transwell membranes, 37° C., four hours
Protocol: (§1) Furthermore, as discussed in Example 5, COMP is a motility factor for chondrocyte migration. Human costochondral cartilage cells were used to test if COMP is active in promoting chondrocyte migration. COMP, as well as TSP1 and Vitrogen (Cohesion; Palo Alto, Calif.), at different concentrations, was coated on the underside of membranes of transwell migration assay wells. Chondrocyte cells, prepared as in the attachment assays, were loaded into the wells. Migration was allowed to go on at 37° C. for four hours. Nonmigratory cells remaining inside the wells were removed with cotton swabs. Cells which migrated to the underside of the membranes were quantified using a CyQuant kit.
as §1, with “Human” for “Furthermore, as discussed in Example 5, COMP is a motility factor for chondrocyte migration. Human”, “concentrations, were” for “concentrations, was”, “assay wells (Costar, Cambridge, Mass.).” for “assay wells.”, “Cells that” for “Cells which”, “CyQuant kit (Molecular Probes).” for “CyQuant kit.”

[5] = previous reports (Lawler and Simons, 1983; Misenheimer and Mosher, 1995); cited from earlier work
[6] = 2 mM Ca2+, ACE, > means no binding observed at any protein concentration, read-out: COMP, Kd in 2 mM Ca^2+
[7] = 5 mM EDTA, ACE, > means no binding observed at any protein concentration, read-out: COMP, Kd in 5 mM EDTA

T1 sequence (P49747 21-757): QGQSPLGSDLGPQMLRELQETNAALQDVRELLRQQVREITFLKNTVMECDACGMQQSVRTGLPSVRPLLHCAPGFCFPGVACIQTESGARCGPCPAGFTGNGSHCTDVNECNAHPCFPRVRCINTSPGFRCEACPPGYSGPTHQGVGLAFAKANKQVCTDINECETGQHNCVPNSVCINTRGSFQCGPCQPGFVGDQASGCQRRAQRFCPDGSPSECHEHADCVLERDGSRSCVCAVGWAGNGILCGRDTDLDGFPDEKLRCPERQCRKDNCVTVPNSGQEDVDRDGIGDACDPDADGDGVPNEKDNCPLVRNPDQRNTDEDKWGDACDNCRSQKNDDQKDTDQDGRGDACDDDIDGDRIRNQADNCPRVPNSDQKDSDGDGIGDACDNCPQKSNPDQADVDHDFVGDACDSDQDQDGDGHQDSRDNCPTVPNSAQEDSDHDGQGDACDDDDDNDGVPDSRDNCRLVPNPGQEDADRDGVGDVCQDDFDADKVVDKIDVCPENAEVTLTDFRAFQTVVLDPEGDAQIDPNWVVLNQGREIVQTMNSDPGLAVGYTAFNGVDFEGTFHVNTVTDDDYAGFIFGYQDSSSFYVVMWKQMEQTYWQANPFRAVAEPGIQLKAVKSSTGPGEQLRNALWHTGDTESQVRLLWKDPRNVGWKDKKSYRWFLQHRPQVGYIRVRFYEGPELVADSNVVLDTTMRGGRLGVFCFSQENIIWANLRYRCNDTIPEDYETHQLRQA

calcium ions bound per subunit [2]: 11±1 calcium ions
Substance: cartilage oligomeric matrix protein [hCOMP]
cell attachment ([1]; calcium replete form, re-differentiated TC1a cells): able to support attachment | decrease of level of attachment by chelation of calcium before coating ([1]; chelation of calcium before coating): approximately 50% | effect on attachment of treating with EDTA before coating ([3]; EDTA before coating): no obvious effect | protein coating concentration at which cells also spread ([3]; calcium replete conformation): ≥ 5 µg/mL | coating concentration at which cells attached and spread ([3]; dithiothreitol-treated): 1 µg/mL | cell attachment ([3]; protein in calcium replete conformation, coated on wells): supported cell attachment in a dose-dependent manner | effect of reduction after coating on adhesive activity ([3]; reduced with DTT after coating, especially at low coating concentration): increased its adhesive activity | chemoattractant potency compared with TSP1 [4]: more potent chemoattractant than TSP1 | chondrocyte migration [4]: good chemoattractant | chemoattractant potency compared with TSP1 ([4]; same concentration of 10 μg/ml): more potent chemoattractant than TSP1

calcium ions bound per subunit [2]: 10±2 calcium ions
Substance: human thrombospondin 1 [TSP1]
chondrocyte migration [4]: promotes chondrocyte migration | chondrocyte migration ([4]; listed as TSP 1): promoted chondrocyte migration | calcium ions bound per subunit, previous reports [5]: 11-12 calcium ions

Continued, substance first:

Substance: Heparin
Kd (hCOMP; [6]): 0.089 µM | Kd (hCOMP; [7]): 0.45 µM

Substance: chondroitin-4-sulfate [C4S]
Kd (hCOMP; [6]): 0.583 µM

Substance: chondroitin-6-sulfate [C6S]
Kd (hCOMP; [6]): 0.403 µM | binding to hCOMP after EDTA treatment (in words) (hCOMP; 5 mM EDTA): abolished | Kd (hCOMP; [7]): > 11 µM

Substance: dermatan sulfate [DS]
Kd (hCOMP; [6]): 0.328 µM

Substance: heparan sulfate [HS]
Kd (hCOMP; in the presence of calcium, ACE, read-out: binding to hCOMP (Kd)): 1.2 µM

Substance: keratan sulfate [KS]
Kd (hCOMP; [6]): > 11 µM | binding to hCOMP (in words) (hCOMP; in the presence of calcium, ACE): did not bind
